This is an account of results in patent US5550148A, “PAF synthesis modulators” (ZymoGenetics, Inc., priority 1995, dated 1996).

Data set [1] concerns de novo PAF-acetyltransferase. Briefly: inhibition of de novo PAF-acetyltransferase (de novo pathway of PAF synthesis). In kind it is biochemical.
For data set [2], the target named is EGF tyrosine kinase (Homo sapiens, UniProt P00533). Briefly: inhibition of EGF tyrosine kinase. In kind it is biochemical. The conditions noted are these: 0.5% DMSO. The procedure:
(§1) Compound 1494 was assayed for a variety of inhibitory activities. […] Displacement of [^3 H]pyrilamine from histamine H1 binding sites (IC50 of about 3 μM) was noted, but may be unrelated to functional receptor agonism or antagonism. Displacement of [3H]dexamethasone from glucocorticoid binding sites (IC50 of about 3 μM) was also observed. Inhibition of the following activities was also detected: […]

Data set [3] deals with remodeling PAF-acetyltransferase. Briefly: inhibition of remodeling PAF-acetyltransferase (remodeling pathway of PAF synthesis). In kind it is biochemical. An excerpt:
A second screening assay detects modulators of the formation of PAF from lyso-PAF and acetyl-CoA by an enzyme termed PAF acetyltransferase. This is the second step in the remodeling pathway of PAF synthesis, described by Wykle, J. Biol. Chem. 255:10256-60, 1980.
The remodeling pathway of PAF synthesis is the pathway involved in pathological processes, such as inflammation, and particularly in neutrophil-mediated processes. The de novo pathway of PAF synthesis is required for normal physiological functions. Therefore, a desirable, anti-inflammatory, therapeutically effective PAF modulator will down-regulate the remodeling pathway, but will have little or no effect on the de novo pathway of PAF synthesis.
Briefly, to assay the remodeling pathway acetyl-transferase, […] of […] bovine serum albumin (fatty acid free; Sigma) in PBS (120 mM NaCl, 2.7 mM KCl, 10 mM phosphate buffer, pH 7.4, supplemented with 10 μM CaCl2) was added to each well of a 96-well, flat-bottom microtiter plate. The plate was incubated for 15 min at ambient temperature, then the wells were aspirated and 50 μl of PBS was added to each well. Duplicate or triplicate test samples in DMSO (≤5% (v/v)) were added to each well.
HL-60 cells (a stable, transformed hematopoietic cell line) were combined with PBS containing 0.05% TWEEN-20 and mixed vigorously at 500 rpm for 30 sec. This treatment permeabilized the HL-60 cells. An aliquot (50 μl) of HL-60 lysate so formed was added to each well of the plate, and the plate was incubated for 5 min at ambient temperature with gentle shaking.
PAF acetyl-transferase substrates were added to each well, such that 25 μl of the following solution was added per well: Lyso-PAF ([…]; Calbiochem, La Jolla, Calif.), acetyl-CoA ([…]; Calbiochem), and ^3 H-acetyl-CoA (25 μCi/ml; Amersham). The plate was gently mixed for 45 sec and then incubated at 37° C. for 20 min.
Newly synthesized PAF was extracted by adding 1.25 mg of AMBERCHROM CG-71 resin (Supelco, Bellefonte, Pa.) in 25 μl of distilled water to each well. The plate was gently shaken for 1 min, following which the resin was collected on a 102 mm×258 mm glass-fiber filter using a MICRO-CELL HARVESTER (Skatron, Waltham, Mass.). The filter was washed with 500 ml water to remove unincorporated ^3 H-acetyl-CoA. Following the wash, the filter was dried in a microwave oven for 5-10 min.
After the filter was dried, it was soaked in 10 ml of Beta Plate scintillation fluid (LKB, Loughborough, England), and bound counts were determined in a TOP COUNT scintillation counter (Pharmacia). Percentage inhibition was determined by dividing the average of 2 or 3 replicate wells by the average of 3 control wells (5% DMSO alone), and multiplying by 100.

In data set [4] the test system is B cell. Briefly: B cell proliferation in the presence of LPS. In kind it is cell-based.
The target of data set [5] is histamine H1 binding sites (Homo sapiens, UniProt P35367). Briefly: displacement of [^3 H]pyrilamine from histamine H1 binding sites. The conditions noted are these: 0.01, 0.1, 1 and 10 μM tested, 0.5% DMSO. The procedure:
as §1

The target in data set [6] is T1, glucocorticoid binding sites (Homo sapiens, UniProt P04150).
T1 sequence (P04150 1-777): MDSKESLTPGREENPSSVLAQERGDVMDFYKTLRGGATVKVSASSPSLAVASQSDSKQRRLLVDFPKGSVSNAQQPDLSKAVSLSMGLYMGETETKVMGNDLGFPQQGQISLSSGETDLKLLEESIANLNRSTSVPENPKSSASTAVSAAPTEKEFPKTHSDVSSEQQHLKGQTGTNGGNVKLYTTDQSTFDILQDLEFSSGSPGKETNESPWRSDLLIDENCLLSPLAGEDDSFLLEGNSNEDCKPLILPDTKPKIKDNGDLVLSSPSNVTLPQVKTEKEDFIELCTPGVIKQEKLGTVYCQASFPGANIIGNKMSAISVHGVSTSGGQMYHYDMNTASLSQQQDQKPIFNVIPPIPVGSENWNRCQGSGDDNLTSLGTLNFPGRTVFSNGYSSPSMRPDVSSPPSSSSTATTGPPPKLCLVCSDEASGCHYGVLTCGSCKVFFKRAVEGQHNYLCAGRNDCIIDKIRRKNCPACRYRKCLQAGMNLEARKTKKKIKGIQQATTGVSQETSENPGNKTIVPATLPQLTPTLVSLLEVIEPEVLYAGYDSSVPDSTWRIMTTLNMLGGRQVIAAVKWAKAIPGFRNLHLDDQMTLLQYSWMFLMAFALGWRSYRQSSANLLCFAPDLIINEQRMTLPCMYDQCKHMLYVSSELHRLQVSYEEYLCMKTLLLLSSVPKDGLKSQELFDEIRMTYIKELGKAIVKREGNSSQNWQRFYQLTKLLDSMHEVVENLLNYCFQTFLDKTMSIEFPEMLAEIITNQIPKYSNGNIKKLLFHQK
Briefly: displacement of [3H]dexamethasone from glucocorticoid binding sites. The following applies: 0.01, 0.1, 1 and 10 μM tested, 0.5% DMSO. The procedure:
as §1

For data set [7], the target named is PAF binding sites (Homo sapiens, UniProt P25105). Briefly: displacement of [^3 H]PAF from PAF binding sites. The following applies: 0.01, 0.1, 1 and 10 μM tested, 0.5% DMSO. The procedure:
as §1

In data set [8] the target is P56^lck tyrosine kinase (Homo sapiens, UniProt P06239). Kind of data set: inhibition of P56^lck tyrosine kinase. In kind it is biochemical. The following applies: 0.5% DMSO. The procedure: as §1
The target of data set [9] is T2, 5-lipoxygenase (Homo sapiens, UniProt P09917).
T2 sequence (P09917 1-674): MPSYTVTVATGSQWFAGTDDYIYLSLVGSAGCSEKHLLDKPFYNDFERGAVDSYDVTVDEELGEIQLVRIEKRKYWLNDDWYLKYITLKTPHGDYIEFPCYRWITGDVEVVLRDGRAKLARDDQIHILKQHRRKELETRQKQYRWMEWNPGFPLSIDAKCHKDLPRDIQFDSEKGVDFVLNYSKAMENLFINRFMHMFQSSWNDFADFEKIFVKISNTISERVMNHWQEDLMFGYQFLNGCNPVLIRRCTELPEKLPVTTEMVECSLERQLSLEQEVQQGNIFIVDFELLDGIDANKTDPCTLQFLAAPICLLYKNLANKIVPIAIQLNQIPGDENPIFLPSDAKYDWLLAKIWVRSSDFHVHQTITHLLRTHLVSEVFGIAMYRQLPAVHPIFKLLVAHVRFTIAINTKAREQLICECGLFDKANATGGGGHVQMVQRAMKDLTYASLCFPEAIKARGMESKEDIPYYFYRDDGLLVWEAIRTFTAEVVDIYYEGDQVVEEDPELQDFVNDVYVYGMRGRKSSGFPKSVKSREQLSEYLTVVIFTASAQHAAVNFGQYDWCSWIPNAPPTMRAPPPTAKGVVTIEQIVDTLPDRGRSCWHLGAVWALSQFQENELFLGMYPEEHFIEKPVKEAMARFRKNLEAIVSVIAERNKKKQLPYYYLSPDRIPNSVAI
Kind of data set: inhibition of 5-lipoxygenase. The data set is classed as biochemical. The conditions noted are these: 0.5% DMSO. The procedure:
as §1

A short description of data set [10]: solubility in 0.5% DMSO. In kind it is physicochemical. The following applies: at 0.01, 0.1, 1 and 10 μM.
Data set [11] concerns the target Phospholipase A2. Briefly: inhibition of Phospholipase A2. The data set is classed as biochemical. The conditions noted are these: 0.5% DMSO. The procedure: as §1
For data set [12], the system named is T cell. Briefly: T cell proliferation in the presence of ConA. In kind it is cell-based.
Data set [13] deals with P59^fyn tyrosine kinase (Homo sapiens, UniProt P06241). Briefly: inhibition of P59^fyn tyrosine kinase. The data set is classed as biochemical. The conditions noted are these: 0.5% DMSO. The procedure: as §1
Data set [14] concerns the target Cyclooxygenase. Kind of data set: inhibition of Cyclooxygenase. In kind it is biochemical. The conditions noted are these: 0.5% DMSO. The procedure:
as §1

As a reminder, the IC50 is the concentration that gives 50% inhibition.

Sequence of PAF binding sites (P25105 whole entry): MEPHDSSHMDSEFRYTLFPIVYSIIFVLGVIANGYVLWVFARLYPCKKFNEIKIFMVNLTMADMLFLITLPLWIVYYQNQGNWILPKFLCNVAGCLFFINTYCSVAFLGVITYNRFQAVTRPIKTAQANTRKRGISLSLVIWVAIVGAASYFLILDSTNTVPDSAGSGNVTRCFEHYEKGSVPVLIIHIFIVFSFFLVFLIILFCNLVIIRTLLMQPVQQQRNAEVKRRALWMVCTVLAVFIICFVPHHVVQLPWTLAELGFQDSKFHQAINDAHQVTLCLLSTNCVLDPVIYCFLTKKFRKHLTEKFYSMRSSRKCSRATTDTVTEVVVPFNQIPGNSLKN
Sequence of EGF tyrosine kinase (P00533 25-1210): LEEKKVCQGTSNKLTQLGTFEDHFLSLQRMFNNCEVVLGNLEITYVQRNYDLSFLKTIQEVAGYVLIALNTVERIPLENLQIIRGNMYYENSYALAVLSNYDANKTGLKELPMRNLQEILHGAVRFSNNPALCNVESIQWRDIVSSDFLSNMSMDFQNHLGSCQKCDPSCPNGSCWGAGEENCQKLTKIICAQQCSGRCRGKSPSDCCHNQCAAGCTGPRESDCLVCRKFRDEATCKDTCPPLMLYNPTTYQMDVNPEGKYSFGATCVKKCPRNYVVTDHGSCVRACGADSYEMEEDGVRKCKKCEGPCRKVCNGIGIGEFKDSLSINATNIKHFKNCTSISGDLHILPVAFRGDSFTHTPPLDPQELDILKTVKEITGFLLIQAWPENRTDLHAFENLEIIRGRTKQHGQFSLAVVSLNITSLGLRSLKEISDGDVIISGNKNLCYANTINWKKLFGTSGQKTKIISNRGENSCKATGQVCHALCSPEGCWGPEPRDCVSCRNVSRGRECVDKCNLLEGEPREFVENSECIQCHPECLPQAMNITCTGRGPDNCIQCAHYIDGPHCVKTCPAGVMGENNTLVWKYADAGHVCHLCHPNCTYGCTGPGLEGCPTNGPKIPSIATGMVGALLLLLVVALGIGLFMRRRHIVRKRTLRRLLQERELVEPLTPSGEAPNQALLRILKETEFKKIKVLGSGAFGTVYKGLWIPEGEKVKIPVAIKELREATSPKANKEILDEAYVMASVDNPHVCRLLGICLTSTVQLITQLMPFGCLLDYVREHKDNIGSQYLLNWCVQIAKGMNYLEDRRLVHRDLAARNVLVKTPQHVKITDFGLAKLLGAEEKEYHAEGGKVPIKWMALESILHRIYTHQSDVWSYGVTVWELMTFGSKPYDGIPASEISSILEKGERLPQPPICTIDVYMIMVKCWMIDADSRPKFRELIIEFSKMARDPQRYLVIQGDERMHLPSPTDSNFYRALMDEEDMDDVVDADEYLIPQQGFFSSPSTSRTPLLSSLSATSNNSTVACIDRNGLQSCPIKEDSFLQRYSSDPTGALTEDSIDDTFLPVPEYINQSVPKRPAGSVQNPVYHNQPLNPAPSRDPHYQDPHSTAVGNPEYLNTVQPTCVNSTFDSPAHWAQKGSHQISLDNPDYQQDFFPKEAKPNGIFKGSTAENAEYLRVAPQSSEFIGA
Sequence of P59^fyn tyrosine kinase (P06241 whole entry): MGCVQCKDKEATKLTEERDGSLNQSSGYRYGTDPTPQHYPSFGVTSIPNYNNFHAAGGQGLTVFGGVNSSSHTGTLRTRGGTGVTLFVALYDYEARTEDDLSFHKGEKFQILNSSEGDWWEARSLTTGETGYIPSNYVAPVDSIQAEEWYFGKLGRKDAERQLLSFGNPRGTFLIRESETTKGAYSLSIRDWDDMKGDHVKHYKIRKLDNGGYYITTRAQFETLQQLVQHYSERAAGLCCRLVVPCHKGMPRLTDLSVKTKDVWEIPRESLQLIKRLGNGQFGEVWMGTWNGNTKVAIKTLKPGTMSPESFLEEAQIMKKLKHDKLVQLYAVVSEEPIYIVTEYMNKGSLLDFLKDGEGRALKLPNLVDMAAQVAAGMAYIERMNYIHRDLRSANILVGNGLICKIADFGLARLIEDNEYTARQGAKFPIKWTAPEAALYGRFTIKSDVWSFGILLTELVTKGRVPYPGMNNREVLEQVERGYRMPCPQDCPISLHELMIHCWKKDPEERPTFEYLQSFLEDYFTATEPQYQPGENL
Sequence of P56^lck tyrosine kinase (P06239 whole entry): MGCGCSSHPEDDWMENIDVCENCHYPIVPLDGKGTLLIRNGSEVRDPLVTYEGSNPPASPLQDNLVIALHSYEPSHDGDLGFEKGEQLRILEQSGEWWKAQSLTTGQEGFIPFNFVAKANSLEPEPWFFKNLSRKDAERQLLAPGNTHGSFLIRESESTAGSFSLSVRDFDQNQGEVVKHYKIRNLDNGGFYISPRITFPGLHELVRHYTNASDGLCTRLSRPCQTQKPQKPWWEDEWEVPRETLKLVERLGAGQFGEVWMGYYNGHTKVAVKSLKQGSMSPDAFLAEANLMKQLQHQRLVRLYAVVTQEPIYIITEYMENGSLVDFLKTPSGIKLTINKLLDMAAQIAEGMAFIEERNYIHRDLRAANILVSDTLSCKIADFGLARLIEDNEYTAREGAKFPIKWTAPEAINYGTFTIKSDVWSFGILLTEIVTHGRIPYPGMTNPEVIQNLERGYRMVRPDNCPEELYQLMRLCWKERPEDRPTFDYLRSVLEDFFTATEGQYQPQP
Sequence of histamine H1 binding sites (P35367 whole entry): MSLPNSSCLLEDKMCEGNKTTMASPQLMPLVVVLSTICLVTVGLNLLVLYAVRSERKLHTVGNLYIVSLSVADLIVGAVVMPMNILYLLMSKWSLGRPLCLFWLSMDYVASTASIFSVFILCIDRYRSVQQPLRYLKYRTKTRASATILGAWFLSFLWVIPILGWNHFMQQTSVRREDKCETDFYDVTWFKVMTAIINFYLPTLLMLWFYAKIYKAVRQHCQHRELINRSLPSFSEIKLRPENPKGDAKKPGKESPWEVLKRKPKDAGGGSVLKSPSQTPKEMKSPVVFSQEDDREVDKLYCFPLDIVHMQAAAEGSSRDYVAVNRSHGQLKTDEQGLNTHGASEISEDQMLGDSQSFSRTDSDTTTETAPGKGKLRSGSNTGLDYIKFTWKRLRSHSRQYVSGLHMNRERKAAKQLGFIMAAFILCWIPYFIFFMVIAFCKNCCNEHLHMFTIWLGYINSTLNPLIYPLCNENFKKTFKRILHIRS

For the molecule `CCC(C)C=C(C)C1C(C)=CC2(C)CC(C)CCC2C1C(=O)C1=CC(O)(Cc2ccc(O)cc2)NC1=O` (centres unmarked) [Compound 1494], in [1] (0.1 to 8.3 μg/well), the “inhibition of de novo PAF-acetyltransferase” value is “no significant inhibition”. The IC50 in [2] is approximately 3 µM; in data set [5], approximately 3 µM; in data set [6], approximately 3 µM; in data set [7], approximately 3 µM; in data set [8] it was approximately 3 µM; in data set [9], approximately 10 µM. In addition, the half-inhibitory concentration (IC50) in data set [11] was approximately 100 µM; in data set [13], approximately 3 µM; in data set [14], approximately 300 µM. For the same molecule, the “inhibition of remodeling PAF-acetyltransferase” value in [3] (0.1 μg/well) is reported as “about 12%”; in data set [3] (8.3 μg/well), “about 71%”; in data set [3] (25 μg/well) it was “about 65%”. Further, the “selectivity for the remodeling pathway of PAF synthesis” value in data set [3] (versus de novo PAF-acetyltransferase) is on record as “selective modulator of the remodeling pathway of PAF synthesis”. Moreover, in data set [4], the B cell proliferation entry is given as “stimulated B cell proliferation”. For the same molecule, in data set [10], the solubility result is on record as “partial solubility”. In data set [12], the T cell proliferation entry is reported as “T cell proliferation”.
As to `CCC(C)C=C(C)C1C(C)=CC2(C)CC(C)CC(C)C2C1C(=O)C1=CC(O)(Cc2ccc(O)cc2)NC1=O` (centres unmarked) [Compound 2158], the “inhibition of de novo PAF-acetyltransferase” value in [1] (0.1 to 25 μg/well) was “No significant inhibition”. The entries for the “inhibition of remodeling PAF-acetyltransferase” value in [3] (25 μg/well) and in [3] (0.9 to 0.1 μg/well) were 59% and 0%, respectively.
